pEC50, pIC50: −log10 of the molar value. Like-named read-outs stand apart in the source and are kept apart here.
Assays:
[1] = target: human IDO (Homo sapiens, UniProt P14902); test: Cell based IDO/kynurenine assay in IDO-293-T-Rex cells; settings: kynurenine production, read-out: hIDO EC50
Description: 293-T-REx™ cells (Invitrogen) constitutively express a tet operator binding repressor protein and are maintained in DMEM, 10% FBS, 1× Penicillin+Streptomycin, 2 mM L-glutamine, 5 μg/mL blasticidin at 37° C. with a 5% CO2 in air atmosphere and typically split prior to confluency. Cells were passed by splitting the culture 1/10—by removing media by aspiration, washing 1× with PBS, incubating with 0.25% trypsin/EDTA until the cells detach, disbursing the cells in fresh growth media, and plating at 1/10 dilutions in fresh growth media. For long term cryopreservation, cells are detached from the plate as described above, collected by centrifugation, resuspended in freeze medium (growth medium, 10% DMSO), stored in 1.8 mL cyropreservation vials (˜2−5×10^6 cells per vial), in liquid nitrogen vapor storage tanks.
IDOl-expressing 293-T-Rex™ cell lines were generated by stable transfection of plasmid pcDNA-tetO-IDO expressing human IDO or murine IDO under the control of the doxycycline-inducible CMV-tet promoter. Transfected cells were selected in DBZ medium (DMEM, 10% FBS, 1× Penicillin+Streptomycin, 2 mM L-glutamine, 5 μg/mL blasticidin and 25 μg/ml Zeocin) at 37° C. with a 5% CO2 in air atmosphere. Individual clones were isolated by limiting dilution cloning from these populations.
[…]. The cells incubated in Neutral medium serve as negative control of the assay. The cells incubated in Induction medium and without inhibitor serve as the positive control of the assay. The incubation is carried out for 16 h at 37° C. in a cell culture incubator. 200 μL of medium are transferred to U-bottom polypropylene 96-well plates containing 25 μL of 30% TCA, incubated 30 minutes at 60° C. and centrifuged at 3400 g for 5 minutes. 150 μL of the clear supernatant is transferred to a polystyrene 96-well plate containing 50 μL of 4% (w/v) of p-dimethylaminobenzaldehyde in acetic acid, incubated for 10 min. Kynurenine concentration is determined by measuring the absorbance at 480 nm.
The conditions of the assay were as described in the examples.

[2] = target: purified human IDO protein (Homo sapiens, UniProt P14902); test: Enzymatic IDO assay (kynurenine production, absorbance 480 nm); settings: enzymatic activity
[3] = 293T cell line stably expressing human IDO, values reported in ranges
[4] = hIDO IC50, recombinant human IDO, values reported in ranges
[5] = Table 15, 293T cells expressing human IDO
[6] = hIDO IC50, Table 15, recombinant human IDO
[7] = read-out: hIDO IC50, recombinant human IDO, values reported in ranges

purified human IDO protein, sequence (P14902 whole entry P110S/E119G): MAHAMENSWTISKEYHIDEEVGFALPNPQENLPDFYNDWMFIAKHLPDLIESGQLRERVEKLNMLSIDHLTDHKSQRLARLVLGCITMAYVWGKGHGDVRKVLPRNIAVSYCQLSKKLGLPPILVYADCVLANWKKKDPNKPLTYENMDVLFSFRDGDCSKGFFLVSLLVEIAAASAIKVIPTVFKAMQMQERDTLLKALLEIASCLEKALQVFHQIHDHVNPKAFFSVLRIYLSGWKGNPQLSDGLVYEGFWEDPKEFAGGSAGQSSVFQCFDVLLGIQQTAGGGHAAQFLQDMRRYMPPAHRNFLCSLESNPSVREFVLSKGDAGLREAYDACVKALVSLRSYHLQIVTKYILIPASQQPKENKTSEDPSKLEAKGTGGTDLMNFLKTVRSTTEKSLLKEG
human IDO, sequence (P14902 whole entry): as the sequence (P14902 whole entry P110S/E119G) above, with S110P, G119E counted along it

Row | pEC50 [1, 3] | pIC50 [2, 4] | pEC50 [1, 5] | pIC50 [2, 6] | SMILES | pIC50 [2, 7]
1 | 3.00 to 4.00 | 3.00 to 4.00 |  |  | CN(C)c1ccc(/C=C2\CSC(=S)NC2=O)cc1 [compound 150, (Z)-5-(4-(dimethylamino)benzylidene)-2-thioxo-1,3-thiazinan-4-one] | 
2 |  |  | < 3.00 | 4.00 to 5.00 | NCC(ON)c1ccccc1 (stereo not drawn) [compound 1875, 2-(aminooxy)-2-phenylethanamine] | 
3 | 4.00 to 4.70 | 3.00 to 4.00 |  |  | CSC(=S)NC(C)(C)Cc1c[nH]c2ccccc12 [compound 28, Methyl 1-(1H-indol-3-yl)-2-methylpropan-2-ylcarbamodithioate] | 
4 | > 4.70 | > 4.70 |  |  | NC(=O)C(=O)NNc1ccccc1 [compound 312, 2-oxo-2-(2-phenylhydrazinyl)acetamide] | 
5 | 3.00 to 4.00 | 3.00 to 4.00 |  |  | S=C(NCCc1c[nH]c2ccccc12)SCCc1ccccc1Cl [compound 21, 2-Chlorophenethyl 2-(1H-indol-3-yl)ethylcarbamodithioate] | 
6 | 2.00 to 3.00 | 3.00 to 4.00 |  |  | CC(=O)C1C2CCC(C2)C1(C)C (stereo not drawn) [compound 289, 1-(3,3-dimethylbicyclo[2.2.1]heptan-2-yl)ethanone] | 
7 | 3.00 to 4.00 | 3.00 to 4.00 |  |  | CSC(=S)NCCc1ccc(C)cc1C [compound 66, Methyl 2,4-dimethylphenethylcarbamodithioate] | 
8 | 4.00 to 4.70 | > 4.70 |  |  | O=C1C(O)=C(CC2=C(O)C(=O)c3ccccc3C2=O)C(=O)c2ccccc21 [compound 477] | 
9 | 4.00 to 4.70 | 3.00 to 4.00 |  |  | Cc1ccc2cc(CSC(=S)NCCc3c[nH]c4ccccc34)ccc2n1 [compound 38, (2-Methylquinolin-6-yl)methyl 2-(1H-indol-3-yl)ethylcarbamodithioate] | 
10 | 3.00 to 4.00 | 3.00 to 4.00 |  |  | O=C1CSC(=S)N1Cc1c[nH]c2ccccc12 [compound 78, 3-((1H-indol-3-yl)methyl)-2-thioxothiazolidin-4-one] | 
11 | 2.00 to 3.00 | > 4.70 |  |  | O=C(O)Cc1cccc2sccc12 [compound 307, 2-(benzo[b]thiophen-4-yl)acetic acid] | 
12 | 3.00 to 4.00 | 3.00 to 4.00 |  |  | S=C(NCCc1c[nH]c2ccccc12)SCCc1ccccc1 [compound 1, Phenethyl 2-(1H-indol-3-yl)ethylcarbamodithioate] | 
13 | 2.00 to 3.00 | 3.00 to 4.00 |  |  | Nc1ccc2[nH]cc(C(=O)O)c2c1 [compound 352, 5-amino-1H-indole-3-carboxylic acid] | 
14 |  |  | > 5.00 | > 5.00 | COC(=O)c1ccc(-c2ccc(Cl)cc2CON)cc1 [compound 1935, methyl 2′-(aminooxymethyl)-4′-chlorobiphenyl-4-carboxylate] | 
15 | 3.00 to 4.00 | 3.00 to 4.00 |  |  | Fc1ccccc1CCSC(=S)NCCc1c[nH]c2ccccc12 [compound 12, 2-fluorophenethyl 2-(1H-indol-3-yl)ethylcarbamodithioate] | 
16 |  |  | > 5.00 | > 5.00 | NOCc1cc(Cl)ccc1-c1ccc2[nH]ccc2c1 [compound 1930, O-(5-chloro-2-(1H-indol-5-yl)benzyl)hydroxylamine] | 
17 | 4.00 to 4.70 | 3.00 to 4.00 |  |  | C=CCOc1ccc(CC)c(OCC=C)c1 [compound 252, 2,4-bis(allyloxy)-1-ethylbenzene] | 
18 | 2.00 to 3.00 | > 4.70 |  |  | O=C1C=C(O)C(=O)c2nc(O)ccc21 [compound 320, 2,7-dihydroxyquinoline-5,8-dione] | 
19 |  |  | > 5.00 | > 5.00 | NOCc1cc(Cl)ccc1-c1cccs1 [compound 1931, O-(5-chloro-2-(thiophen-2-yl)benzyl)hydroxylamine] | 

Row | pEC50 [1, 3] | pIC50 [2, 4] | pEC50 [1, 5] | pIC50 [2, 6] | SMILES | pIC50 [2, 7]
20 | 4.00 to 4.70 | 3.00 to 4.00 |  |  | Oc1cc(O)nc(SCc2ccccc2)n1 [compound 222, 2-(benzylthio)pyrimidine-4,6-diol] | 
21 | 4.00 to 4.70 | 4.00 to 4.70 |  |  | S=C(NCCc1c[nH]c2ccccc12)SCc1cc2c(cc1Br)OCO2 [compound 65, (6-Bromobenzo[d][1,3]dioxol-5-yl)methyl 2-(1H-indol-3-yl)ethylcarbamodithioate] | 
22 |  |  | > 5.00 | > 5.00 | NOCc1cc(Cl)ccc1-c1ccsc1 [compound 1932, O-(5-chloro-2-(thiophen-3-yl)benzyl)hydroxylamine] | 
23 | 4.00 to 4.70 | 3.00 to 4.00 |  |  | Cc1ccc(C)c(C(C)CC(=O)O)c1 (stereo not drawn) [compound 261, 3-(2,5-dimethylphenyl)butanoic acid] | 
24 | 4.00 to 4.70 | 4.00 to 4.70 |  |  | S=C(NCCc1c[nH]c2ccccc12)SCc1ccc2c(c1)OCO2 [compound 50, Benzo[d][1,3]dioxol-5-ylmethyl 2-(1H-indol-3-yl)ethylcarbamodithioate] | 
25 | 3.00 to 4.00 | 3.00 to 4.00 |  |  | CSC(=S)NCCCCCCc1c[nH]c2ccccc12 [compound 27, Methyl 6-(1H-indol-3-yl)hexylcarbamodithioate] | 
26 | 4.00 to 4.70 | 4.00 to 4.70 |  |  | Oc1ccccc1C(=S)NCc1ccc2ccccc2c1 [compound 607, 2-hydroxy-N-(naphthalen-2-ylmethyl)benzothioamide] | 
27 | 4.00 to 4.70 | 3.00 to 4.00 |  |  | Cc1c(O)c(=O)ccn1CCc1c[nH]c2ccccc12 [compound 552, 1-(2-(1H-indol-3-yl)ethyl)-3-hydroxy-2-methylpyridin-4(1H)-one] | 
28 |  |  | > 5.00 | > 5.00 | CN(C)c1ccc(-c2ccc(Cl)cc2CON)cc1 [compound 1934, 2′-(aminooxymethyl)-4′-chloro-N,N-dimethylbiphenyl-4-amine] | 
29 | 3.00 to 4.00 | 3.00 to 4.00 |  |  | O=C(Cc1csc(=S)[nH]1)NCc1ccc2ccccc2c1 [compound 701, N-(Naphthalen-2-ylmethyl)-2-(2-thioxo-2,3-dihydrothiazol-4-yl)acetamide] | 
30 | 3.00 to 4.00 | 3.00 to 4.00 |  |  | O=C(O)CC(=O)c1ccc(F)cc1 [compound 313, 3-(4-fluorophenyl)-3-oxopropanoic acid] | 
31 | 3.00 to 4.00 | 3.00 to 4.00 |  |  | COc1cccc(CCSC(=S)NCCc2c[nH]c3ccccc23)c1 [compound 10, 3-methoxyphenethyl 2-(1H-indol-3-yl)ethylcarbamodithioate] | 
32 | 4.00 to 4.70 | 3.00 to 4.00 |  |  | S=C(NCCc1c[nH]c2ccccc12)SCCc1ccc(Br)cc1 [compound 4, 4-Bromophenethyl 2-(1H-indol-3-yl)ethylcarbamodithioate] | 
33 | 3.00 to 4.00 | 3.00 to 4.00 |  |  | O=C1C(CSC(=S)Nc2ccccc2)NC(=S)N1c1ccccc1 (stereo not drawn) [compound 151, (5-oxo-1-phenyl-2-thioxoimidazolidin-4-yl)methyl phenylcarbamodithioate] | 
34 | 4.00 to 4.70 | 3.00 to 4.00 |  |  | Cc1cc2ccccc2cc1CCSC(=S)NCCc1c[nH]c2ccccc12 [compound 47, 2-(3-methylnaphthalen-2-yl)ethyl 2-(1H-indol-3-yl)ethylcarbamodithioate] | 
35 | 4.00 to 4.70 | 3.00 to 4.00 |  |  | Oc1ccccc1C(=S)NCCc1c[nH]c2ccccc12 [compound 644, N-(2-(1H-indol-3-yl)ethyl)-2-hydroxybenzothioamide] | 
36 | 3.00 to 4.00 | 4.00 to 4.70 |  |  | Nc1cc(S(=O)O)c2cccnc2c1O [compound 309, 7-amino-8-hydroxyquinoline-5-sulfinic acid] | 
37 | 4.00 to 4.70 | 3.00 to 4.00 |  |  | NC(CSC(=S)NCCCc1ccccc1)C(=O)O (stereo not drawn) [compound 140, 2-amino-3-(3-phenylpropyl-carbamo-thioylthio)propanoic acid] | 

Row | SMILES | pEC50 [1, 3] | pIC50 [2, 4] | pEC50 [1, 5] | pIC50 [2, 6] | pIC50 [2, 7]
38 | CSC(=S)NCCc1c[nH]c2cc(Cl)cc(Cl)c12 [compound 43] | 3.00 to 4.00 |  |  |  | 3.00 to 4.00
39 | CSC(=S)NCCc1c[nH]c2ccc([N+](=O)[O-])cc12 [compound 40] | 3.00 to 4.00 |  |  |  | 3.00 to 4.00
40 | O=C1NC(=S)S/C1=C\c1ccc2c(c1)OCO2 [compound 148, (Z)-5-(benzo[d][1,3]dioxol-5-ylmethylene)-2-thioxothiazolidin-4-one] | 3.00 to 4.00 | 3.00 to 4.00 |  |  | 
41 | CC(=O)N1C(=O)/C(=C2/SC(=S)NC2=O)c2ccccc21 [compound 149] | 4.00 to 4.70 | 3.00 to 4.00 |  |  | 
42 | CSC(=S)NCCc1cccc(Cl)c1 [compound 14] | 3.00 to 4.00 |  |  |  | 3.00 to 4.00
43 | S=C(NCCc1csc2ccccc12)SCc1ccc2ccccc2c1 [compound 60] | 4.00 to 4.70 |  |  |  | 4.00 to 4.70
44 | CSC(=S)NCCc1c[nH]c2ccc(Cl)cc12 [compound 32] | 4.00 to 4.70 |  |  |  | 3.00 to 4.00
45 | CSC(=S)NCCc1c[nH]c2cc(C(F)(F)F)cc(C(F)(F)F)c12 [compound 44] | 2.00 to 3.00 |  |  |  | 3.00 to 4.00

— patent publication US20130289083A1, “IDO Inhibitors” (priority 2007, published 2013)
